This note sets out measurements from ChEMBL document CHEMBL1148138, “New eremophilenolides from Ligulariopsis shichuana” (2002).

One assay relates to Escherichia coli. Nature of the assay: Antibacterial activity against Escherichia coli at 100 ug/mL after 24 hrs by cup-plate method. The assay is classed as functional. The following applies: read-out: Diameter of inhibition zone.
A further assay deals with Bacillus subtilis. In words: Antibacterial activity against Bacillus subtilis at 100 ug/mL after 24 hrs by cup-plate method. In kind it is functional. The following applies: read-out: Diameter of inhibition zone.

A word on the zone of inhibition: it is the size of the clear area around the sample on an inoculated plate. On to `C/C=C(/C)C(=O)O[C@@H]1[C@@]23O[C@@H]2C[C@H](OC(C)=O)[C@H](C)[C@@]3(C)CC2=C(C)C(=O)O[C@@]21O`, for which the zone of inhibition at 100 µg/mL in the assay with Escherichia coli and in the assay on Bacillus subtilis was 13 mm throughout.
Consider `CC(C)=CC(=O)O[C@H]1C[C@H]2O[C@]23C[C@@]2(O)OC(=O)C(C)=C2C[C@]3(C)[C@H]1C`, for which the zone of inhibition at 100 µg/mL in the assay on Escherichia coli was 13 mm; in the assay with Bacillus subtilis, 16 mm.
For the molecule `O=C(N[C@H](CO)[C@H](O)c1ccc([N+](=O)[O-])cc1)C(Cl)Cl` [CHLORAMPHENICOL], the zone of inhibition at 100 µg/mL with Escherichia coli and in the assay on Bacillus subtilis was 16 mm throughout.
